Test results taken from US11225479B2, “Bicyclic inhibitors of histone deacetylase” (Alkermes, Inc., priority 2017, dated 2022).
Values joined by “and” are separate entries in the source; they are usually repeats but may differ in a detail not shown here. Equal values may be shown once.

How the values were obtained:
[1] = Brain and plasma exposure following IV and PO administration to mice; assay type: in vivo; details: for Brain Cmax @ 10 mpk / Projected free brain @ 10 mpk: 10 mg/kg PO; for brain Cmax exposure, fold higher than comparator 1 / projected free brain concentration, fold higher than comparator 1: comparator 1 data scaled for comparison
Description: Compounds were dosed in mice at either 10 mg/kg or 30 mg/kg PO, and were dosed at 1 mg/kg IV. Three animals for collection at each time point for plasma via bleeding at 0.25, 0.5, 1, 4, 12 and 24 h. Terminal bleeding for plasma and sampling for brain at 0.25, 0.5, 1, 4, 12 and 24 h (also three animals per brain exposure time point group). Total of six time points for plasma and six time points for brain.
Plasma: The animal was restrained manually at the designated time points, approximately 150 μL blood/time point was collected into K2EDTA tube via retro orbital puncture or cardiac puncture under anesthesia with Isoflurane. The blood sample was centrifuged (2000 g, 4° C., 5 min) to generate plasma within 30 min after bleeding.
Brain: At the designated time points, a mid-line incision was made in the animals scalp and the skin was retracted. Using small bone cutters and rongeurs, removed the skull overlying the brain. Removed the brain using a spatula and rinse with cold saline. Placed the brain in screw-top tubes, and then stored the tubes under −70° C. until analysis.

[2] = test system: human erythroid progenitors (CFU-E, BFU-E); assay: Erythroid CFU assay; assay type: cell-based; details: for activity at 10 µM: Bone marrow cell, 336 h, 14 days culture, human bone marrow cells, read-out: Erythroid % control @ 10 uM dose
Description: (§1) Compounds were tested to evaluate the potential effects on human erythroid and myeloid progenitors using colony forming cell assays. Clonogenic progenitors of human erythroid (CFU-E, BFU-E), granulocyte-monocyte (CFU-GM) and multipotential (CFU-GEMM) lineages were assessed in a semi-solid methylcellulose-based media formulation containing rhIL-3 (10 ng/mL), rhGM-SCF (10 ng/mL), rhSCF (50 ng/mL) and Epo (3 U/mL).
(§2) Normal human bone marrow light density cells derived from normal bone marrow (NorCal Biologics, California), were stored in the gaseous phase of liquid nitrogen (−152° C.) until required for the assay. On the day of the experiment, the cells were thawed rapidly, the contents of each vial was diluted in 10 mL of Iscove's modified Dulbecco's medium containing 10% fetal bovine serum (IMDM+10% FBS) and washed by centrifugation (approximately 1200 r.p.m. for 10 minutes, room temperature). The supernatant was discarded and the cell pellets resuspended in a known volume of IMDM+10% FBS. A cell count (3% glacial acetic acid) and viability assessment (trypan blue exclusion test) was performed for the bone marrow sample.
(§3) On the day of the experiment, the compounds were dissolved in DMSO to a stock concentration of 10 mM. Serial dilutions were prepared from the stock concentration to achieve concentrations of 2 and 0.4 mM. When added to the methylcellulose-based media at 1:1000 (v/v), the final test concentrations of 10, 2 and 0.4 μM were achieved. Additionally, 5-FU was evaluated at 1.0, 0.1 and 0.01 μg/mL.
(§4) Clonogenic progenitors of the human erythroid (CFU-E and BFU-E) and myeloid (CFU-GM) lineages were set up in the methylcellulose-based media formulations described above. All compounds were added to the medium to give the final desired concentrations (10, 2 and 0.4 μM). 5-Fluorouracil (Sigma Aldrich) was used as a positive control for progenitor proliferation (inhibition of colony growth) and was introduced to the human bone marrow cultures at 1.0, 0.1, and 0.01 μg/mL. Solvent control cultures (containing no compound but 0.1% DMSO) as well as standard controls (containing no compound and no DMSO) were also initiated.
(§5) Human myeloid and erythroid progenitor assays were initiated at 2.0×10^4 cells per culture. Following 14 days in culture, myeloid and erythroid colonies were assessed microscopically and scored by trained personnel. The colonies were divided into the following categories based on size and morphology: CFU-E, BFU-E, CFU-GM and CFU-GEMM.
(§6) The mean±one standard deviation of three replicate cultures was calculated for progenitors of each category (CFU-E, BFU-E, etc.). Two-tailed t-tests were performed to assess if there was a difference in the number of colonies generated between solvent control and treated cultures. Due to the potential subjectivity of colony enumeration, a p value of less than 0.01 is deemed significant. To calculate the concentration of 50% inhibition of colony growth (IC50) for each compound, a dose response curve was generated plotting the log of the compound concentration versus the percentage of control colony growth using XLfit software (IDBS). The concentration of 50% inhibition of colony growth (IC50) was calculated based on the sigmoid curve fit using Dose-Response, One-Site Model formula: y=A+[(B−A)/(1+((C/x)^D))], where A=the initial value (baseline response), B=maximum response, C=center (drug concentration that provokes a response halfway between A and B) and D=slope of the curve at midpoint. Further, plots and additional dose response curves were generated using GraphPad Prism 7.0.
(§7) Erythroid (CFU-E and BFU-E), myeloid (CFU-GM) and multi-potential (CFU-GEMM) colony enumeration was performed by trained personnel. The distribution of colony types as well as general colony and cellular morphology was analyzed. For statistical analysis colony numbers in compound treated cultures were compared to the solvent control cultures. […]

[3] = test system: human myeloid progenitors (CFU-GM); assay: Myeloid CFU assay; assay type: cell-based; details: 336 h, 14 days culture, human bone marrow cells, read-out: Myeloid % control @ 10 uM dose
Description: as §1, §2, §3, §4, §5, §6, §7

Row | SMILES | Brain Cmax @ 10 mpk [1] | activity at 10 µM [2] | activity at 10 µM [3] | other results
1 | CCc1cc2c(cn1)CN(C(=O)Nc1nc(-c3cccnc3)ccc1N)C2 [Compound 8] | 279 ng/g | 98% | 102% | –
2 | Cc1cc2c(cn1)CN(C(=O)Nc1nc(-c3cccnc3)ccc1N)C2 [Compound 12] | 237 ng/g | 93% | 104% | –
3 | Cn1cc2c(n1)CN(C(=O)Nc1nc(-c3ccc(F)cc3)ccc1N)C2 [Comparator 2, reference compound] | – | 15.7% | 30.4% | –
4 | CCc1ncc2c(n1)CN(C(=O)Nc1nc(-c3ccc(F)cc3)ccc1N)C2 [Compound 17] | 1241 ng/g | 59.6% | 79.1% | brain Cmax exposure, fold higher than comparator 1 [1]: ~7 fold; projected free brain concentration, fold higher than comparator 1 [1]: 5 fold
5 | COCc1cc2c(cn1)CN(C(=O)Nc1nc(-c3ccc(F)cc3)ccc1N)C2 [Comparator 5, reference compound] | – | 22.9% | 58.9% | –
6 | COCCn1cc2c(n1)CN(C(=O)Nc1nc(-c3ccc(F)cc3)ccc1N)C2 [Comparator 6, reference compound] | – | 28% | 39% | –
7 | Nc1ccc(-c2ccc(F)cc2)nc1NC(=O)N1Cc2cn(C3COC3)nc2C1 [Compound 1] | 636 ng/g | 37% | 54% | –
8 | O=c1[nH]cc(F)c(=O)[nH]1 [Compound 5-FU, 5-Fluorouracil, reference compound] | – | – | – | inhibitory effects on colony growth (positive control for toxicity) ([2]; 1.0, 0.1 and 0.01 μg/mL, erythroid and myeloid assays): exactly as expected
9 | Cc1cc2c(cn1)CN(C(=O)Nc1nc(-c3ccc(F)cc3)ccc1N)C2 [Comparator 3, reference compound] | – | 25.7% | 66.1% | –
10 | Nc1ccc(-c2ccc(F)cc2)nc1NC(=O)N1Cc2cncnc2C1 [Comparator 1, reference compound] | – | 47.1% | 83.9% | Brain Cmax @ 10 mpk (*scaled for comparison) ([1]; dosed 30 mg/kg PO, scaled to 10 mg/kg PO): 158* ng/g

Second part, led by results:

Row | Brain Cmax @ 10 mpk [1] | SMILES | activity at 10 µM [2] | activity at 10 µM [3] | other results
11 | 277 ng/g | Cc1ncc(-c2ccc(N)c(NC(=O)N3Cc4cn(CC(F)F)nc4C3)n2)s1 [Compound 5] | – | – | –
12 | 100 ng/g | Nc1ccc(-c2cccs2)nc1NC(=O)N1Cc2cncnc2C1 [Comparator 6, reference compound] | – | – | Projected free brain @ 10 mpk [1]: 0.103 µM
13 | 324 ng/g | Cc1ncc(-c2ccc(N)c(NC(=O)N3Cc4cn(C)nc4C3)n2)s1 [Compound 4] | 53% | 96% | –
14 | 633 ng/g | Cc1ncc2c(n1)CN(C(=O)Nc1nc(-c3ccc(F)cc3)ccc1N)C2 [Compound 14] | 53% | 112% | brain Cmax exposure, fold higher than comparator 1 [1]: 4 fold; projected free brain concentration, fold higher than comparator 1 [1]: 4 fold
15 | 369 ng/g | Cn1cc2c(n1)CN(C(=O)Nc1nc(-c3cccnc3)ccc1N)C2 [Compound 11] | 94% | 103% | Projected free brain @ 10 mpk [1]: 0.664 µM
16 | 1533 ng/g and 1383 ng/g | COCCn1cc2c(n1)CN(C(=O)Nc1nc(-c3ccc(F)cc3F)ccc1N)C2 [Compound 9] | 40.4% | 62.8% | –
17 | 526 ng/g | CCc1ncc2c(n1)CN(C(=O)Nc1nc(-c3cccs3)ccc1N)C2 [Compound 3] | 46.6% | 89.4% | –
18 | 760 ng/g | Cc1ncc2c(n1)CN(C(=O)Nc1nc(-c3ccc(F)s3)ccc1N)C2 [Compound 2] | 40% | 87% | –
19 | 102 ng/g | Cc1nc2c(n1C)CN(C(=O)Nc1nc(-c3ccc(F)cc3)ccc1N)C2 [Compound 7] | – | – | –
